Legend:
[1] = BCS criteria; cited from earlier work
[2] = Excipient compatibility, binary mixtures 1:10, 40° C./75% RH over 2 weeks; type: physicochemical
Experimental: To assess compatibility with excipients, progerinin was mixed with HPMC E3, TPGS, and potassium sorbate in a ratio of 1:10, and the effectiveness of the drug (API) components was measured under 40° C./75% RH condition over 2 weeks and shown in Table 9 and Table 10.

[3] = Stability of spray-dried solid dispersions under high temperature and high humidity for 2 weeks; type: physicochemical; conditions: for Appearance / HPLC results Purity / XRPD: open
[4] = tested on: progeria-induced animal model; conditions: background art; cited from earlier work
[5] = BCS classification, permeability and solubility of progerinin; type: physicochemical
Text: In particular, the above-mentioned progerinin is poorly soluble to the extent that its solubility in water is close to zero, and the solubility is very low even in existing ingestible solvents, such that it is necessary to develop a formulation that enables long-term intake and body absorption through the introduction of new technology.

For `CC1(C)Oc2cc3oc(=O)ccc3cc2C[C@@H]1OC/C=C/c1ccccc1` [progerinin, (7S)-(+)-8,8-dimethyl-7-(3-phenylallyloxy)-7,8-dihydro-6H-pyrano [3,2-g]chromen-2-one], the “solubility in aqueous media” value [1] is listed as “low solubility in aqueous media”, the “API(% Area)” value ([2]; 40° C./75% RH, 1 week) is listed as 99.94 % Area and the “RRT = 1.02” value ([2]; 40° C./75% RH, 1 week) is listed as 0.06. The “API(% Area)” value ([2]; 40° C./75% RH, 2 weeks) was 99.95 % Area, the “RRT = 1.02” value ([2]; 40° C./75% RH, 2 weeks) was 0.05 and the “API(% Area)” value ([2]; Initial) was 99.94 % Area. For the same molecule, the “RRT = 1.02” value ([2]; Initial) was 0.06, the “compatibility with excipients HPMC E3, TPGS and potassium sorbate” value ([2]; text summary of Tables 9 and 10) was “no effect on the drug” and the Appearance ([3]; 25° C./60% RH) was “White”. The “HPLC results Purity” value ([3]; 25° C./60% RH, after 1 week) was 99.85%, the XRPD ([3]; 25° C./60% RH, after 1 week) was “Unchanged” and the “HPLC results Purity” value ([3]; 25° C./60% RH, after 2 weeks) was 99.85%. For the same molecule, the XRPD ([3]; 25° C./60% RH, after 2 weeks) was “Unchanged”, the Appearance ([3]; 40° C./75% RH) was “White” and the “HPLC results Purity” value ([3]; 40° C./75% RH, after 1 week) was 99.85%. The XRPD ([3]; 40° C./75% RH, after 1 week) was “Unchanged”, the “HPLC results Purity” value ([3]; 40° C./75% RH, after 2 weeks) was 99.85% and the XRPD ([3]; 40° C./75% RH, after 2 weeks) was “Unchanged”. The Initial purity ([3]; Initial) was 99.85%, the “survival period of progeria-induced animal model” value [4] was “prolonging a survival period” and the solubility in water [5] was “close to zero”.

From US20250017853A1, “NANOSUSPENSION CONTAINING PROGERININ, AND PREPARATION METHOD THEREFOR” (PRG S&Tech Inc., priority 2021, published 2025)
